Test results reported in patent US20240197643A1, “ORAL DELIVERY OF NANOPARTICLES FOR KIDNEY DISEASE” (UNIVERSITY OF SOUTHERN CALIFORNIA, priority 2020, published 2024).
In brackets after ≈: the same amount, converted by molar mass. Like-named read-outs stand apart in the source and are kept apart here. One block for each compound: values may come before it.

Columns and labels:
[1] = molecular target: megalin (mouse) (UniProt A2ARV4); assay: confocal immunohistochemistry of mouse kidney sections 24 h after i.v. injection; colocalization of Cy7 micelle signal with anti-megalin Alexa Fluor 488 signal (ImageJ coloc2)
megalin (mouse), sequence (A2ARV4 26-4660): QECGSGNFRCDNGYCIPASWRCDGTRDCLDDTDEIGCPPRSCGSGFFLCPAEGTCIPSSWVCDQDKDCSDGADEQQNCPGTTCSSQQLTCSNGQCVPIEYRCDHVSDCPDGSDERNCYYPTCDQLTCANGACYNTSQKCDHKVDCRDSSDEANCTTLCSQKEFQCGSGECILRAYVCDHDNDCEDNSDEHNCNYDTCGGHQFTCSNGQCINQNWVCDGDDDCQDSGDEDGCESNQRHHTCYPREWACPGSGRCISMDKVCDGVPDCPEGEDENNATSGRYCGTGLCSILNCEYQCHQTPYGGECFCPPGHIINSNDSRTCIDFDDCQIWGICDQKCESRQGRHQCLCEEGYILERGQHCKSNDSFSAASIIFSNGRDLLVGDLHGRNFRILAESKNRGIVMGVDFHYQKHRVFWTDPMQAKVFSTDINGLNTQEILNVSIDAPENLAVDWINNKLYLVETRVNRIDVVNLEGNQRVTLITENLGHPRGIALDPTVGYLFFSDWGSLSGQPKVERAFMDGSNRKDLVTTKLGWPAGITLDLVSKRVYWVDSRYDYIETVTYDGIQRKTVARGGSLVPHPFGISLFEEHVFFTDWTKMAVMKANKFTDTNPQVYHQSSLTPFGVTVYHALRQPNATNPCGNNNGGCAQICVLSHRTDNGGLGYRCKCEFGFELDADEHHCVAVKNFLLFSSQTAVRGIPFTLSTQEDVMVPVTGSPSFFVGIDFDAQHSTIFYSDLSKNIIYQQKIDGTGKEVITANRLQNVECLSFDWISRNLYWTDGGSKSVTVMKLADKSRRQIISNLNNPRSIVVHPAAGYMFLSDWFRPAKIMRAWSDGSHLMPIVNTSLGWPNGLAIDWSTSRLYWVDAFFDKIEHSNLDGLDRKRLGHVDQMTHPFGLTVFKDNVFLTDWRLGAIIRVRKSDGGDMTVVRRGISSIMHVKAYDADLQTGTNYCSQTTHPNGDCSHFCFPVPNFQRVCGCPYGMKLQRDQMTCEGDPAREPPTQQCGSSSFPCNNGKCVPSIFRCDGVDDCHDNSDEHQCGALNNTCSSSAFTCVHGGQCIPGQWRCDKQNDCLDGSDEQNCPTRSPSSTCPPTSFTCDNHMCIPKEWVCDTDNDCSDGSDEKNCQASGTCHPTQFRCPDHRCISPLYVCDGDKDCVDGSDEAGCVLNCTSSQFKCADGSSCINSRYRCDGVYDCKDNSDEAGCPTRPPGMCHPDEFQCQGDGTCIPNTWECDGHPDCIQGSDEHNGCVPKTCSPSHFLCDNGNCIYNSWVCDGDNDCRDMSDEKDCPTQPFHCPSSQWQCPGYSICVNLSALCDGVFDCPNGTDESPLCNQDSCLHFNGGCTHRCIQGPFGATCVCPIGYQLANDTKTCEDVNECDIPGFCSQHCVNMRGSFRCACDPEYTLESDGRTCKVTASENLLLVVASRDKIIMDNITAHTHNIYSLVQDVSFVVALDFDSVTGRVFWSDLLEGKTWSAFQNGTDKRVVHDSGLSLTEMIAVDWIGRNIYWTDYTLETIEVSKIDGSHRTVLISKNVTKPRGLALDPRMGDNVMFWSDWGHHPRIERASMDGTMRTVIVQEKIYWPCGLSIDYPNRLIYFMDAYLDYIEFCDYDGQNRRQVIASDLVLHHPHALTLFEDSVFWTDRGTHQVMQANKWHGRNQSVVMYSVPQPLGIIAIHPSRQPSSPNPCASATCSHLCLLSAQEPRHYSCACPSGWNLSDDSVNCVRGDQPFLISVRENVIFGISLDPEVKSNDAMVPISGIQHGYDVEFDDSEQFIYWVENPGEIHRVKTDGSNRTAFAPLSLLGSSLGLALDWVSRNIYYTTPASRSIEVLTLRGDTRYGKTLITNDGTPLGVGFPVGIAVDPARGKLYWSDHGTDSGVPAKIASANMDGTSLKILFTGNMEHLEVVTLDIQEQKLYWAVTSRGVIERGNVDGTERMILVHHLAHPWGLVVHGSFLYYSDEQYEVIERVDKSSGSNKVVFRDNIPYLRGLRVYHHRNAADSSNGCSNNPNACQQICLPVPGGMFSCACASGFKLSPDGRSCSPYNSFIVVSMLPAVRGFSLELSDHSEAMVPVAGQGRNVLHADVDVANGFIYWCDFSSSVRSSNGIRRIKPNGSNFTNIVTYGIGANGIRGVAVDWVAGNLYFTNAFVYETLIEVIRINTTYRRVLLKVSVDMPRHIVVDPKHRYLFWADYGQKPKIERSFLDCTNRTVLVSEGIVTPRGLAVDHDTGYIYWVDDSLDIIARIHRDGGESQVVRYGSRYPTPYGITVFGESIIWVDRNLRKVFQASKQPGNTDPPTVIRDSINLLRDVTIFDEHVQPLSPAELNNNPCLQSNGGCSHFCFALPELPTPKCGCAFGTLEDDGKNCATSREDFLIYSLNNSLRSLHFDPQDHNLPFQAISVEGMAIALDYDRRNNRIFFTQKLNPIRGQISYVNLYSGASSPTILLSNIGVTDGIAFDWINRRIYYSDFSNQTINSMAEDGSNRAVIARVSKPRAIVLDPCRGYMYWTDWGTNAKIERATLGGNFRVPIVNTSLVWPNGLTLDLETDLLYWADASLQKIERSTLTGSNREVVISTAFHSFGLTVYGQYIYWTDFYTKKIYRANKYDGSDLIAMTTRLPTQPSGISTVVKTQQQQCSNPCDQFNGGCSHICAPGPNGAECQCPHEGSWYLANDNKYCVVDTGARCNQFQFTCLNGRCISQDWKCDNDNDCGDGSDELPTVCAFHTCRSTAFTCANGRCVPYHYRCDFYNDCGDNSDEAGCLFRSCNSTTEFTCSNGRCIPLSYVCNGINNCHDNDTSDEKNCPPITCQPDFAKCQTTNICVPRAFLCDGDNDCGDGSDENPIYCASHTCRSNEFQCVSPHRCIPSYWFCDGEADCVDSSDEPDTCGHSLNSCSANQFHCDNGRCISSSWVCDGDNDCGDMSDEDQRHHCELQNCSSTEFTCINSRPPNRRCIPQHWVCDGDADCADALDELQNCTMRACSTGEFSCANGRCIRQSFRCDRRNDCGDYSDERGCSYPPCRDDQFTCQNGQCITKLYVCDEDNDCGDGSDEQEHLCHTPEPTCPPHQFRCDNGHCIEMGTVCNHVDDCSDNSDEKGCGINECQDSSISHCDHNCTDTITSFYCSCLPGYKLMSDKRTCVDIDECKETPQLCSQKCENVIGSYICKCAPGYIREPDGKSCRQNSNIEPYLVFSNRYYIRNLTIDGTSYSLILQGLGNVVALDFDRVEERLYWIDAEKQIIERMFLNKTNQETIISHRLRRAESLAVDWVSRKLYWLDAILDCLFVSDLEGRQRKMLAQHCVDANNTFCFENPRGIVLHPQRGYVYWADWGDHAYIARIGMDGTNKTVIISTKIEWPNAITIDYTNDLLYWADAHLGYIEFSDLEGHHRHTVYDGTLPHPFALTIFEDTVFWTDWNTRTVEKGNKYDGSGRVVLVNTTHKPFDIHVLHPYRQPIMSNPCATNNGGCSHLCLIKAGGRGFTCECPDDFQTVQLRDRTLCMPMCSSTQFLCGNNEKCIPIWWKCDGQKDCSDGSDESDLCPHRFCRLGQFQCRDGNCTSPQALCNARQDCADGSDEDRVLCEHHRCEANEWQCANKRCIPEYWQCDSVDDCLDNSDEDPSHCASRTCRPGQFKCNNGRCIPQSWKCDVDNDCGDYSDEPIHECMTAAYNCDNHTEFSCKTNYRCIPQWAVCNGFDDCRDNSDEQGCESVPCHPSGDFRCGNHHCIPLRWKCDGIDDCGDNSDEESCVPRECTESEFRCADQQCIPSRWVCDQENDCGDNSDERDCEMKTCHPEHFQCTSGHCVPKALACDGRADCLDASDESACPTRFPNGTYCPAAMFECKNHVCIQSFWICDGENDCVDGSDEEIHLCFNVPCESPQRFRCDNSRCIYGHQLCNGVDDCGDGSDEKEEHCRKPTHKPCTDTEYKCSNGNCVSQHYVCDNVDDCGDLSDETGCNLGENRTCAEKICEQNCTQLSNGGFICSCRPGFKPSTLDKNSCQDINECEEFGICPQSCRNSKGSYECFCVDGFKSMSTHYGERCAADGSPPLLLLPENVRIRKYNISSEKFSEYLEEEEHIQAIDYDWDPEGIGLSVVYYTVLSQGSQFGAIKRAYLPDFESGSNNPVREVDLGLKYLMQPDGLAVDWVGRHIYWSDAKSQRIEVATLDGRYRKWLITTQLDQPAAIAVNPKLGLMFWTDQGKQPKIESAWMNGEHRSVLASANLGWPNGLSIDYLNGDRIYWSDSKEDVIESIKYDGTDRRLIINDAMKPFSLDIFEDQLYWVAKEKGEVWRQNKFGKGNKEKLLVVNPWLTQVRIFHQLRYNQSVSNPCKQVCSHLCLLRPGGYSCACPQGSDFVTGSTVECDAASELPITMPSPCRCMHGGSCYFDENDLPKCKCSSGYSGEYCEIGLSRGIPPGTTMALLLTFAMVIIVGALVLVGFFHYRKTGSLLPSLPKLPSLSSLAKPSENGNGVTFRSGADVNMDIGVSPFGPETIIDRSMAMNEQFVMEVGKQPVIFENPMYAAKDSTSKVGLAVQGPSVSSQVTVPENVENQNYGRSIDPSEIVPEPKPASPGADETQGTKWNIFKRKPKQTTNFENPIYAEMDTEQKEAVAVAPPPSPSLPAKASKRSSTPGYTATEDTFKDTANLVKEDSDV

[2] = Solubility in MQ; assay type: physicochemical; conditions: MQ (water)
[3] = Encapsulation study of everolimus or rapamycin in micelles; assay type: physicochemical
Protocol: Micelles were assembled by dissolving DSPE-PEG(2000)-methoxy in methanol at 100 μM with either everolimus or rapamycin at different lipid:drug molar ratios (2:1, 5:1, 10:1, 20:1), mixing the components, and evaporating the organic solvent under nitrogen. The resulting film was dried under vacuum over night, and then hydrated at 80° C. for 30 min in water and allowed to cool to room temperature overnight before DLS and TEM analysis. DLS measurements were determined at 90° and 637 nm using a Malvern Zetasizer. Free drug was separated by syringe filtering micelles using PTFE syringe filter, pore size 0.1 μm. To calculate encapsulation efficiency and drug loading, micelles were disrupted using DMSO and encapsulated drug was quantified by reading absorbance at 278 nm in a UV Greiner 96-well plate.

[4] = system: Caco-2 cell monolayers; assay: Transepithelial resistance (TER) surveillance; assay type: cell-based, Human; conditions: up to 3 days after administration
Protocol: For transport and monolayer resistance experiments, Caco-2 cell monolayers were seeded onto Transwell inserts (Corning, NY, USA; diameter 6.5 mm, growth area 0.33 cm^2, pore size 0.4 μm), at an initial density of 3×10^5 cell/cm2 and maintained for 21 days in complete medium to form a confluent monolayer. The change of TER, representing the tightness of the cell monolayers, was measured by an EVOM2 Epithelial Voltohmmeter (World Precision Instruments, USA). Monolayers reaching steady-state values in the range of 300-400 Ω-cm^2 were used for studies.
Additionally, the effect of paracellular transport through tight junctions was monitored via TER of Caco-2 cells seeded on Transwell inserts. TER measurements were performed daily for three days prior to treatment with CS-NP R, free Rhodamine (free R), or PBS control to establish baseline measurements. TER was monitored every 6 h, then again on day 2 and 3 post-administration.

[5] = Ex vivo imaging of orally administered CS-NP; assay type: in vivo, C57BL/6 J mice; conditions: oral gavage 10 mg/kg rhodamine
Protocol: To assess the biodistribution of CS-NP semi-quantitatively, 6-7 week old male and female C57BL/6 J mice (Jackson Laboratories, Bar Harbor, ME, USA) were orally gavaged with 10 mg/kg of rhodamine loaded in 200 μL of 500 μM CS-NP R, 10 mg/kg of free R, or PBS control. Mice were euthanized after 3, 24, or 48 h […] and organs (e.g., brain, heart, lungs, liver, kidneys, spleen, intestines, and bladder) were excised and imaged ex vivo on an AMI HTX in vivo imaging system (Spectral Instruments Imaging, Tucson, AZ, USA). The fluorescence signal was quantified via Aura software (Spectral Instruments Imaging, Tucson, AZ, USA, N ≥4), and the background was subtracted from the PBS treated group. The mean radiance (photons/s/cm2/sr) for each organ was quantified as a region of interest, and % of total organ fluorescence was obtained by dividing each organ by the sum of all the organ regions. Urine and blood samples were collected following organ harvest and stored at −20° C. until further analysis. All animal procedures followed NIH guidelines for the care and use of laboratory animals and were approved by the University of Southern California's Institutional Animal Care and Use Committee.

[6] = system: Caco-2 cells; assay: Cellular uptake and transport of CS-NP with pathway inhibitors; assay type: in vitro ADME, Human; conditions: same conditions as CS-NP R
Protocol: To assess the cellular uptake pathways of chitosan nanoparticles, Caco-2 cells were pretreated with medium containing colchicine (transcytosis inhibitor, 10 μM, for 60 min) or wortmannin (macropinocytosis inhibitor, 0.06 mM, for 3 h) before 100 μL of 100 μM rhodamine-loaded chitosan nanoparticles (CS-NP R) was administered in the apical chamber. The amount of rhodamine fluorescence was measured in the basolateral chamber over the course of 4 h.

[7] = Histology and intestinal localization after oral gavage; assay type: in vivo, C57BL/6 J mice; conditions: 24 h after oral gavage
Description: Following ex vivo imaging, the brain, heart, lungs, liver, kidneys, spleen, intestines, and bladder were immediately frozen and embedded in OCT (Tissue Tek, Sakura Finetek, Torrance, CA, USA). 10 μm sections were obtained (CM3050 S Cryostat, Leica, Nussloch, Germany) and placed on Superfrost Plus slides (Fisherbrand, Waltham, MA, USA). Tissue sections were stained with hematoxylin & eosin (H&E) and imaged (Leica DMi8, Leica, Wetzlar, Germany, N=3). For staining of intestinal mucin, tissue sample were processed with an alcian blue 1%, pH 2.5 stain kit (Newcomer Supply, Middleton, WI, USA). Briefly, tissue sections on slides were washed in acetic acid for 3 min, incubated in alcian blue for 30 min at 4° C. in a humidified chamber, and counterstained with Nuclear Fast Red (Vector Laboratories, Burlingame, CA, USA). Samples were mounted using VectaMount™ (Vector Laboratories, Burlingame, CA, USA).

[8] = Serum fluorescence and absolute bioavailability after oral gavage; assay type: in vivo, C57BL/6 J mice; conditions: oral gavage 10 mg/kg rhodamine, relative to IV
Protocol: Blood draws were performed either retro-orbitally or via tail vein at 30 min, 3, 6, 12, 24, 36, and 48 h post-administration. Fluorescence was measured in serum and quantified using a rhodamine calibration curve developed in mouse serum.

[9] = system: AMPK; assay: Transwell intestinal cell model, pAMPK/AMPK ELISA of basolateral mpkCCDc14; assay type: cell-based; conditions: 300 μM, up to 48 h, across Caco2 monolayer on transwell insert
Description: FIG. 17A provides a transwell schematic of mpkCCDc14 cell monolayers, with a Caco2 cell monolayer seeded on the transwell insert. […] Chitosan Disrupts Intestinal Tight Junctions.

[10] = Kidney health in PKD mice (i-Stat Chem-8+); assay type: in vivo, Pkd1fl/fl; Pax8 rtTA; Tet-O-Cre mice; conditions: day of harvest
Protocol: Serum components, electrolytes, and kidney health markers including sodium (Na), potassium (K), chloride (Cl), ionized calcium (iCa), total carbon dioxide (tCO2), glucose (Glu), blood urea nitrogen (BUN)/Urea, creatinine (Crea), hematocrit (Hct), hemoglobin (Hb), and anion gap (AnGap) were assessed in diseased Pkd1fl/fl; Pax8 rtTA; Tet-OCre mice. 90 μL of blood taken from the submandibular vein on the day of harvest was analyzed using Chem-8+ cartridges for the i-Stat Handheld Blood Analyzer (Abbott, Chicago, IL, USA).

[11] = system: epithelial sodium channel (ENaC); assay: ENaC current measurement in mpkCCDc14 monolayers; assay type: cell-based, Mouse; conditions: after 48 h, mpkCCDc14 cells, 300 μM met
Protocol: To validate the therapeutic efficacy of met on the reduction of ENAC current, TER and potential difference (PD) measurements were made on mpkCCDc14 cells seeded on Transwell filters as described above. ENaC-dependent equivalent short-circuit currents (leq) was estimated by Ohm's law, dividing the measured PD by the TER value and the area of one Transwell membrane (0.33 cm2). mpkCCDc14 cell cultures were treated with 100 μL CS-NP met (300 μM met), CS-NP, or PBS at pH 7.4.

[12] = human, in vivo, cited from earlier work
[13] = human, in vivo; cited from earlier work
[14] = system: cortical collecting duct (CCD); conditions: identified in the literature; cited from earlier work
[15] = cited from earlier work
[16] = DSPE-PEG(2000)-methoxy:drug molar ratio 2:1

Compound: CCN(CC)c1ccc2c(-c3ccccc3C(=O)O)c3ccc(=[N+](CC)CC)cc-3oc2c1.[Cl-] [free R, Rhodamine B]
- changes in TER [4]: No changes in TER
- % of total organ fluorescence accumulation in the intestines ([5]; 3 h): 45.8±14.0%
- % of total organ fluorescence accumulation in the intestines ([5]; 24 h): 37.4±15.5%
- % of total organ fluorescence accumulation in the intestines ([5]; 48 h): 38.5±15.1%
- reduction in transport between the colchicine and wortmannin conditions [6]: No statistically significant reduction
- intestinal localization [7]: localized to the duodenum and ileum
- absolute bioavailability [8]: 47.9%

Compound: Cc1ccccc1C(=O)Nc1ccc(C(=O)N2CCCC(O)c3cc(Cl)ccc32)c(C)c1 (stereo not drawn) [tolvaptan]
- clinical trial dropout rate [13]: 23%

Compound: CKDSPKSSKSIRFIPVST (listed as Homo sapiens)
- Targeting location [14]: Type A
- Water solubility [15]: Good

Compound: ELRGDRAKL-C: alternative CCD-targeting peptide, SEQ ID NO: 56 (ELRGDRAKLC; listed as Homo sapiens)
- Targeting location [14]: CCD
- Water solubility [15]: Good

Compound: KMGGTNHPE-C: cortical collecting duct (CCD)-targeting peptide, SEQ ID NO: 53 (KMGGTNHPEC; listed as Homo sapiens)
- Targeting location [14]: PCT and CCD
- Water solubility [15]: Good

Compound: MGSHIEPGG-C: cortical collecting duct (CCD)-targeting peptide, SEQ ID NO: 52 (MGSHIEPGGC; listed as Homo sapiens)
- Targeting location [14]: PCT and CCD
- Water solubility [15]: Good

More lines, main results first:

- Pearson's R value (colocalization) [1]: 0.53
Compound: 45% PEG2000-(EEKKK)3E micelle (peptide (EEKKK)3E with added N-terminal cysteine, conjugated to DSPE-PEG(2000)-maleimide)

- Pearson's R value (colocalization) [1]: 0.48
Compound: 45% PEG2000-(KKEEE)3K micelle (kidney-targeting peptide (KKEEE)3K with added N-terminal cysteine, conjugated to DSPE-PEG(2000)-maleimide)

- solubility [2]: < 100 µg/mL
- Encapsulation efficiency (%) [3, 16]: 87.1 ± 2.0%
- Loading capacity (wt/wt %) [3, 16]: 13.0 ± 0.3 wt/wt %
- Moles drug per mole micelle [3, 16]: 0.1 ± 0.01
- Size (nm) ([3]; drug-loaded micelles, lipid:drug 2:1): 21.0 ± 1.3 nm
Compound: CO[C@H]1C[C@@H]2CC[C@@H](C)[C@@](O)(O2)C(=O)C(=O)N2CCCC[C@H]2C(=O)O[C@H]([C@H](C)C[C@@H]2CC[C@@H](OCCO)[C@H](OC)C2)CC(=O)[C@H](C)/C=C(\C)[C@@H](O)[C@@H](OC)C(=O)[C@H](C)C[C@H](C)/C=C/C=C/C=C/1C [Everolimus]

- solubility [2]: 5 to 20 µg/mL (≈ 5.47 to 21.9 µM)
Compound: CO[C@H]1C[C@@H]2CC[C@@H](C)[C@@](O)(O2)C(=O)C(=O)N2CCCC[C@H]2C(=O)O[C@H]([C@H](C)C[C@@H]2CC[C@@H](O)[C@H](OC)C2)CC(=O)[C@H](C)/C=C(\C)[C@@H](O)[C@@H](OC)C(=O)[C@H](C)C[C@H](C)/C=C/C=C/C=C/1C [Rapamycin]

- serum components, electrolytes, and kidney health markers [10]: no significant difference between groups
Compound: CN(C)C(=N)N=C(N)N [free met, metformin]
- phosphorylated AMPK to total AMPK compared to CS-NP [9]: significant increase
- ENaC current [11]: 79.2 μA/cm2
- patients with gastrointestinal (GI) discomfort [12]: 25%
- patients with complete intolerance for the drug ([12]; listed as met): approximately 5%
- patients with complete intolerance for the drug ([12]; listed as metformin): 5%
